Laboratory results published in patent US9012642B2, “Pyrrolopyridinone compounds and methods for treating HIV” (ViiV Healthcare UK Limited, priority 2011, dated 2015).
Read-outs that look alike come from different tables or passages of the source.

Tested on: HIV
Assay: HIV MT4 Assay (antiviral HIV activity in MT-4 cells)
Type: cell-based
Experimental: Antiviral HIV activity and cytotoxicity values for compounds of the invention from Table 1 were measured in parallel in the HTLV-1 transformed cell line MT-4 based on the method previously described (Hazen et al., 2007, In vitro antiviral activity of the novel, tyrosyl-based human immunodeficiency virus (HIV) type 1 protease inhibitor brecanavir (GW640385) in combination with other antiretrovirals and against a panel of protease inhibitor-resistant HIV (Hazen et al., “In vitro antiviral activity of the novel, tyrosyl-based human immunodeficiency virus (HIV) type 1 protease inhibitor brecanavir (GW640385) in combination with other antiretrovirals and against a panel of protease inhibitor-resistant HIV”, Antimicrob. Agents Chemother. 2007, 51: 3147-3154; and Pauwels et al., “Sensitive and rapid assay on MT-4 cells for the detection of antiviral compounds against the AIDS virus”, (J. of Virological Methods 1987, 16: 171-185).
Luciferase activity was measured 96 hours later by adding a cell titer glo (Promega, Madison, Wis.). Percent inhibition of cell protection data was plotted relative to no compound control. Under the same condition, cytotoxicity of the compounds was determined using cell titer Glo™ (Promega, Madison, Wis.). IC50s were determined from a 10 point dose response curve using 3-4-fold serial dilution for each compound, which spans a concentration range >1000 fold.
These values are plotted against the molar compound concentrations using the standard four parameter logistic equation: y=((Vmax*x^n)/(K^n+x^n))+Y^2
Y^2=minimum y n=slope factor
Vmax=maximum y x=compound concentration [M]

[1] = Human immunodeficiency virus 1, MT4, HTLV-1 transformed cell line MT-4, luciferase activity measured 96 hours later, Table 3, read-out: HIV MT4 Assay IC50
[2] = MT4, 96 h, read-out: MT4 (IC50)

Row | SMILES | IC50 [1] [nM] | IC50 [2] [nM]
1 | Cn1c(C(OC(C)(C)C)C(=O)O)c(-c2ccc(Cl)cc2)c2ccn(S(=O)(=O)c3ccc(F)cc3)c2c1=O (centres unmarked) [Example 16, 2-(tert-butoxy)-2-(4-(4-chlorophenyl)-1-((4-fluorophenyl)sulfonyl)-6-methyl-7-oxo-6,7-dihydro-1H-pyrrolo[2,3-c]pyridin-5-yl)acetic acid] | 1800 | 1800
2 | Cc1ccc(-c2c(C(OC(C)(C)C)C(=O)O)n(C)c(=O)c3c2ccn3Cc2ccc(S(C)(=O)=O)cc2)cc1 (centres unmarked) [Example 27, 2-(tert-butoxy)-2-(6-methyl-1-(4-(methylsulfonyl)benzyl)-7-oxo-4-(p-tolyl)-6,7-dihydro-1H-pyrrolo[2,3-c]pyridin-5-yl)acetic acid] | 3850 | 3850
3 | Cn1c(C(OC(C)(C)C)C(=O)O)c(-c2ccc(Cl)cc2)c2c(Br)cn(Cc3ccccc3)c2c1=O (centres unmarked) [Example 14, 2-(1-benzyl-3-bromo-4-(4-chlorophenyl)-6-methyl-7-oxo-6,7-dihydro-1H-pyrrolo[2,3-c]pyridin-5-yl)-2-(tert-butoxy)acetic acid] | 750 | 750
4 | Cc1c(-c2c(C(OC(C)(C)C)C(=O)O)n(C)c(=O)c3c2ccn3CC2CCCCC2)ccc2c1CCCO2 (centres unmarked) [Example 51, 2-(tert-butoxy)-2-(1-(cyclohexylmethyl)-6-methyl-4-(5-methylchroman-6-yl)-7-oxo-6,7-dihydro-1H-pyrrolo[2,3-c]pyridin-5-yl)acetic acid] | 100 | 100
5 | Cc1ccc(-c2c(C(OC(C)(C)C)C(=O)O)n(C)c(=O)c3c2ccn3Cc2ccc(Cl)c(F)c2)cc1 (centres unmarked) [Example 31, 2-(tert-butoxy)-2-(1-(4-chloro-3-fluorobenzyl)-6-methyl-7-oxo-4-(p-tolyl)-6,7-dihydro-1H-pyrrolo[2,3-c]pyridin-5-yl)acetic acid] | 110 | 110
6 | Cn1c(C(OC(C)(C)C)C(=O)O)c(-c2ccc(F)cc2)c2ccn(Cc3ccc(F)cc3)c2c1=O (centres unmarked) [Example 37, 2-(tert-butoxy)-2-(1-(4-fluorobenzyl)-4-(4-fluorophenyl)-6-methyl-7-oxo-6,7-dihydro-1H-pyrrolo[2,3-c]pyridin-5-yl)acetic acid] | 670 | 670
7 | Cn1c(C(OC(C)(C)C)C(=O)O)c(-c2ccc(Cl)cc2)c2ccn(Cc3ccc(C(F)(F)F)o3)c2c1=O (centres unmarked) [Example 9, 2-(tert-butoxy)-2-(4-(4-chlorophenyl)-6-methyl-7-oxo-1-((5-(trifluoromethyl)furan-2-yl)methyl)-6,7-dihydro-1H-pyrrolo[2,3-c]pyridin-5-yl)acetic acid] | 1250 | 1250
8 | Cc1c(-c2c(C(OC(C)(C)C)C(=O)O)n(C)c(=O)c3c2ccn3Cc2ccccn2)ccc2c1CCCO2 (centres unmarked) [Example 42, 2-(tert-butoxy)-2-(6-methyl-4-(5-methylchroman-6-yl)-7-oxo-1-(pyridin-2-ylmethyl)-6,7-dihydro-1H-pyrrolo[2,3-c]pyridin-5-yl)acetic acid] | 540 | 540
9 | COc1ccc(Cn2ccc3c(-c4ccc(Cl)cc4)c(C(OC(C)(C)C)C(=O)O)n(C)c(=O)c32)cc1 (centres unmarked) [Example 3, 2-(tert-butoxy)-2-(4-(4-chlorophenyl)-1-(4-methoxybenzyl)-6-methyl-7-oxo-6,7-dihydro-1H-pyrrolo[2,3-c]pyridin-5-yl)acetic acid] | 460 | 460
10 | Cn1c(C(OC(C)(C)C)C(=O)O)c(-c2ccc(Cl)cc2)c2ccn(Cc3cn4ccccc4n3)c2c1=O (centres unmarked) [Example 10, 2-(tert-butoxy)-2-(4-(4-chlorophenyl)-1-(imidazo[1,2-a]pyridin-2-ylmethyl)-6-methyl-7-oxo-6,7-dihydro-1H-pyrrolo[2,3-c]pyridin-5-yl)acetic acid] | 3000 | 3000
11 | Cc1ccc(-c2c(C(OC(C)(C)C)C(=O)O)n(C)c(=O)c3c2ccn3Cc2cc(F)c(F)c(F)c2)cc1 (centres unmarked) [Example 32, 2-(tert-butoxy)-2-(6-methyl-7-oxo-4-(p-tolyl)-1-(3,4,5-trifluorobenzyl)-6,7-dihydro-1H-pyrrolo[2,3-c]pyridin-5-yl)acetic acid] | 80 | 80
12 | Cc1ccc(-c2c([C@H](OC(C)(C)C)C(=O)O)n(C)c(=O)c3c2ccn3Cc2ccc(F)cc2)cc1 [Example 24, (S)-2-(tert-butoxy)-2-(1-(4-fluorobenzyl)-6-methyl-7-oxo-4-(p-tolyl)-6,7-dihydro-1H-pyrrolo[2,3-c]pyridin-5-yl)acetic acid] | 40 | 40
13 | Cc1c(-c2c(C(OC(C)(C)C)C(=O)O)n(C)c(=O)c3c2ccn3C)ccc2c1CCCO2 (centres unmarked) [Example 40, 2-(tert-butoxy)-2-(1,6-dimethyl-4-(5-methylchroman-6-yl)-7-oxo-6,7-dihydro-1H-pyrrolo[2,3-c]pyridin-5-yl)acetic acid] | 500 | 500
14 | COc1ccc(Cn2ccc3c(-c4ccc(C)cc4)c(C(OC(C)(C)C)C(=O)O)n(C)c(=O)c32)cc1 (centres unmarked) [Example 29, 2-(tert-butoxy)-2-(1-(4-methoxybenzyl)-6-methyl-7-oxo-4-(p-tolyl)-6,7-dihydro-1H-pyrrolo[2,3-c]pyridin-5-yl)acetic acid] | 170 | 170
15 | Cc1ccc(S(=O)(=O)n2ccc3c(-c4ccc(Cl)cc4)c(C(OC(C)(C)C)C(=O)O)n(C)c(=O)c32)cc1 (centres unmarked) [Example 17, 2-(tert-butoxy)-2-(4-(4-chlorophenyl)-6-methyl-7-oxo-1-tosyl-6,7-dihydro-1H-pyrrolo[2,3-c]pyridin-5-yl)acetic acid] | 1200 | 1200
16 | Cc1c(-c2c(C(OC(C)(C)C)C(=O)O)n(C)c(=O)c3sc4c(c23)CCCC4)ccc2c1CCCO2 (centres unmarked) [Example 55, tert-Butoxy-[2-methyl-4-(5-methyl-chroman-6-yl)-1-oxo-1,2,5,6,7,8-hexahydro-benzo[4,5]thieno[2,3-c]pyridin-3-yl]-acetic acid] | 130 | 130
